Test results as given in ChEMBL document CHEMBL1142070, “Antimicrobial susceptibility and synergy studies of Burkholderia cepacia complex isolated from patients with cystic fibrosis” (2007).
≈ marks a conversion by molar mass, not a printed value.

Legend:
Format in all cases: functional
Burkholderia cepacia [1] = assay: Antimicrobial susceptibility of Burkholderia cepacia complex isolated from cystic fibrosis patient assessed as percent resistant isolates
Burkholderia cepacia [2] = assay: Antimicrobial susceptibility of Burkholderia cepacia complex isolated from cystic fibrosis patient assessed as percent susceptible isolates
Burkholderia cepacia [3] = assay: Antimicrobial activity against Burkholderia cepacia complex isolated from cystic fibrosis patient by broth microdilution assay

Compound | Activity (Burkholderia cepacia [1]) | Activity (Burkholderia cepacia [2]) | MIC50 (Burkholderia cepacia [3]) | MIC90 (Burkholderia cepacia [3])
O=C(N[C@H](CO)[C@H](O)c1ccc([N+](=O)[O-])cc1)C(Cl)Cl [CHLORAMPHENICOL] | 85% | 5% | 64 µg/mL (≈ 198 µM) | > 64 µg/mL
CO/N=C(\C(=O)N[C@@H]1C(=O)N2C(C(=O)[O-])=C(C[N+]3(C)CCCC3)CS[C@H]12)c1csc(N)n1 [CEFEPIME] |  | 8% |  | 
CC(C)(O/N=C(\C(=O)N[C@@H]1C(=O)N2C(C(=O)[O-])=C(C[n+]3ccccc3)CS[C@H]12)c1csc(N)n1)C(=O)O [CEFTAZIDIME] | 65% | 23% | 32 µg/mL (≈ 58.5 µM) | 128 µg/mL (≈ 234 µM)
NCC[C@H](O)C(=O)N[C@@H]1C[C@H](N)[C@@H](O[C@H]2O[C@H](CN)[C@@H](O)[C@H](O)[C@H]2O)[C@H](O)[C@H]1O[C@H]1O[C@H](CO)[C@@H](O)[C@H](N)[C@H]1O [AMIKACIN] |  | 4% |  | 
C[C@@H](O)[C@H]1C(=O)N2C(C(=O)O)=C(SCCNC=N)C[C@H]12 [IMIPENEM ANHYDROUS] |  | 7% |  | 
CCN1CCN(C(=O)N[C@@H](C(=O)N[C@@H]2C(=O)N3[C@@H]2SC(C)(C)[C@@H]3C(=O)O)c2ccccc2)C(=O)C1=O [PIPERACILLIN] | 80% | 11% | 256 µg/mL (≈ 495 µM) | > 256 µg/mL
C[C@H]1[C@H](NC(=O)/C(=N\OC(C)(C)C(=O)O)c2csc(N)n2)C(=O)N1S(=O)(=O)O [AZTREONAM] |  | 2% |  | 
CC1(C)S[C@@H]2[C@H](NC(=O)[C@H](C(=O)O)c3ccsc3)C(=O)N2[C@H]1C(=O)O [TICARCILLIN] |  | 2% |  | 
CO[C@H]1/C=C/O[C@@]2(C)Oc3c(C)c(O)c4c(O)c(c(/C=N/N5CCN(C)CC5)c(O)c4c3C2=O)NC(=O)/C(C)=C\C=C\[C@H](C)[C@H](O)[C@@H](C)[C@@H](O)[C@@H](C)[C@H](OC(C)=O)[C@@H]1C [RIFAMPIN] |  | 1% |  | 
O=C(O)c1cn(C2CC2)c2cc(N3CCNCC3)c(F)cc2c1=O [CIPROFLOXACIN] |  | 5% |  | 
CN(C)c1ccc(O)c2c1C[C@H]1C[C@H]3[C@H](N(C)C)C(O)=C(C(N)=O)C(=O)[C@@]3(O)C(O)=C1C2=O [MINOCYCLINE] | 37% | 38% | 8 µg/mL (≈ 17.5 µM) | 32 µg/mL (≈ 69.9 µM)
C[C@H]1c2cccc(O)c2C(=O)C2=C(O)[C@]3(O)C(=O)C(C(N)=O)=C(O)[C@@H](N(C)C)[C@@H]3[C@@H](O)[C@@H]21.O [DOXYCYCLINE] | 61% | 22% | 16 µg/mL | > 32 µg/mL
C[C@@H](O)[C@H]1C(=O)N2C(C(=O)O)=C(S[C@@H]3CN[C@H](C(=O)N(C)C)C3)[C@H](C)[C@H]12 [MEROPENEM] | 48% | 26% | 8 µg/mL (≈ 20.9 µM) | 32 µg/mL (≈ 83.4 µM)
